In patent publication US20260374754A1, “N-((ISOQUINOLIN-6-YL)METHYL)-1H-PYRAZOLE-4-CARBOXAMIDE DERIVATIVES AS PLASMA KALLIKREIN INHIBITORS FOR THE TREATMENT OF HEREDITARY ANGIODEMA” (Takeda Pharmaceutical Company Limited, priority 2022, published 2026):

molecular target: human activated kallikrein enzyme (Homo sapiens, UniProt P03952); assay: Inhibition of human activated plasma kallikrein, fluorogenic PFR-AMC substrate, 500 pM enzyme format; type: biochemical; conditions: 500 pM activated kallikrein; 300 μM PFR-AMC; 30 min preincubation; 10 min room temperature; pH 7.5; read-out: Primary Dose Response Assay: Average EC50
Method in brief: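 Using fluorogenic PFR-AMC at 300 μM, cleavage by 500 pM human activated kallikrein ran 10 min at room temperature, read at 460 nm emission (380 nm excitation). Enzyme and compounds were first preincubated 30 min in 20 mM Tris pH 7.5, 150 mM NaCl, 1 mM EDTA, 0.1% PEG-400, 0.1% Triton X-100.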

Chain of human activated kallikrein enzyme (P03952 391-638 limits assumed): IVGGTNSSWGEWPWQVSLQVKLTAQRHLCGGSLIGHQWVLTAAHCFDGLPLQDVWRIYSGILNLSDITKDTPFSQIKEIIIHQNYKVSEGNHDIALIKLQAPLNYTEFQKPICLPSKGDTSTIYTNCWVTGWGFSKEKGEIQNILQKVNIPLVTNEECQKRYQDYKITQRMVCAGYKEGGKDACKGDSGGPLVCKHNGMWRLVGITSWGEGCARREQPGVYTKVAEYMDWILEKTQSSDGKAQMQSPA
Chain of human activated kallikrein enzyme (P03952 20-390 partner limits assumed): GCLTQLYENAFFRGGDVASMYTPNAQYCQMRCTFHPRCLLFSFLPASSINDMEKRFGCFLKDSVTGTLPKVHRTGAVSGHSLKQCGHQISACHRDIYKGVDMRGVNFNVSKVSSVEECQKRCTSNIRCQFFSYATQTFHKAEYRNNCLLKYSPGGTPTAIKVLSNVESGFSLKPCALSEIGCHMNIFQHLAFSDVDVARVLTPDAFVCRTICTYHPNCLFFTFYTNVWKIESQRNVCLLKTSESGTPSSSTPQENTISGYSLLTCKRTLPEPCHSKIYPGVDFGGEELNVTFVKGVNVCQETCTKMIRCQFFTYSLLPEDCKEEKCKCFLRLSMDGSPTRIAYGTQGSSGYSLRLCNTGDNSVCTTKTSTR

SMILES	EC50
Cc1c(CNC(=O)c2cnn(Cc3ccccc3)c2)c(C2CC2)cc2c(N)nccc12 [Example 174, N-((1-amino-7-cyclopropyl-5-methylisoquinolin-6-yl)methyl)-1-benzyl-1H-pyrazole-4-carboxamide]	10 to 100 nM
Cc1c(CNC(=O)c2cnn(Cc3ccccc3)c2)c(C2(C)CC2)cc2c(N)nccc12 [Example 175, N-((1-amino-5-methy1-7-(1-methylcyclopropyl)isoquinolin-6-y1)methyl)-1-benzyl-1H-pyrazole-4-carboxamide]	10 to 100 nM
Cc1cc2c(N)nccc2c(C)c1CNC(=O)c1cnn(Cc2cn3cc(C4CC4(C)C)ccc3n2)c1 (stereo not drawn) [Example 176, N-((1-amino-5,7-dimethylisoquinolin-6-yl)methyl)-1-((6-(2,2-dimethylcyclopropyl)imidazo[1,2-a]pyridin-2-yl)methyl)-1H-pyrazole-4-carboxamide]	1 to 10 nM
CC(C)=Cc1ccc2nc(Cn3cc(C(=O)NCc4c(C)cc5c(N)nccc5c4C)cn3)cn2c1 [Example 179, N-((1-amino-5,7-dimethylisoquinolin-6-yl)methyl)-1-((6-(2-methylprop-1-en-1-yl)imidazo[1,2-a]pyridin-2-y1)methyl)-1H-pyrazole-4-carboxamide]	1 to 10 nM
Cc1cc2c(N)nccc2c(C)c1CNC(=O)c1cnn(C(CN)c2ccccc2)c1 (stereo not drawn) [Example 180, 1-(2-amino-1-phenylethyl)-N-((1-amino-5,7-dimethylisoquinolin-6-yl)methyl)-1H-pyrazole-4-carboxamide]	100 to 1000 nM
Cc1cc2c(N)nccc2c(C)c1CNC(=O)c1cnn(C(CNC(=O)OC(C)(C)C)c2ccccc2)c1 (stereo not drawn) [Example 181, tert-butyl (2-(4-(((1-amino-5,7-dimethylisoquinolin-6-yl)methyl)carbamoyl)-1H-pyrazol-1-yl)-2-phenylethyl)carbamate]	> 1000 nM
COCc1c(C(=O)NCc2c(C)cc3c(N)nccc3c2C)cnn1Cc1ccc(Cn2cccn2)cc1 [Example 188, 1-(4-((1H-pyrazol-1-yl)methyl)benzyl)-N-((1-amino-5,7-dimethylisoquinolin-6-yl)methyl)-5-(methoxymethyl)-1H-pyrazole-4-carboxamide]	10 to 100 nM
Cc1cc2c(N)nccc2c(C)c1CNC(=O)c1ccnc(C(=O)c2cn3cc(C4CC4)ccc3n2)c1 [Example 189, N-((1-amino-5,7-dimethylisoquinolin-6-y1)methyl)-2-(6-cyclopropylimidazo[1,2-a]pyridine-2-carbonyl)isonicotinamide]	100 to 1000 nM
Cc1c(CNC(=O)c2cnn(Cc3cn4cc(C5CC5)ccc4n3)c2)c(C)c2ccnc(N)c2c1C [Example 191, N-((1-amino-5,7,8-trimethylisoquinolin-6-yl)methyl)-1-((6-cyclopropylimidazo[1,2-a]pyridin-2-yl)methy1)-1H-pyrazole-4-carboxamide]	10 to 100 nM
Cc1cc2c(N)nccc2c(C)c1CNC(=O)c1cnn(Cc2ccc(N3CCCC3)nc2)c1C(F)(F)F [Example 193, N-((1-amino-5,7-dimethylisoquinolin-6-yl)methyl)-1-((6-(pyrrolidin-1-y1)pyridin-3-yl)methyl)-5-(trifluoromethyl)-1H-pyrazole-4-carboxamide]	100 to 1000 nM
Cc1cc2c(N)nccc2c(C)c1CNC(=O)c1cnn(Cc2cnc(-c3ccccc3)nc2)c1 [Example 195, N-((1-amino-5,7-dimethylisoquinolin-6-yl)methyl)-1-((2-phenylpyrimidin-5-yl)methyl)-1H-pyrazole-4-carboxamide]	1 to 10 nM
Cc1cc2c(N)nccc2c(C)c1CNC(=O)c1cnn(Cc2ccc(Cc3cccn(CC(F)(F)F)c3=O)cc2)c1 [Example 196, N-((1-amino-5,7-dimethylisoquinolin-6-yl)methyl)-1-(4-((2-oxo-1-(2,2,2-trifluoroethyl)-1,2-dihydropyridin-3-yl)methyl)benzy1)-1H-pyrazole-4-carboxamide]	1 to 10 nM
Cc1cc2c(N)nccc2c(C)c1CNC(=O)c1cnc(Cc2cn3cc(C4CC4)ccc3n2)s1 [Example 198, N-((1-amino-5,7-dimethylisoquinolin-6-y1)methyl)-2-((6-cyclopropylimidazo[1,2-a]pyridin-2-yl)methyl)thiazole-5-carboxamide]	1 to 10 nM
Cc1cc2c(N)nccc2c(C)c1CNC(=O)c1cn(C(C)c2ccc3ncc(Cl)cc3c2)nn1 (stereo not drawn) [Example 200, N-((1-amino-5,7-dimethylisoquinolin-6-yl)methyl)-1-(1-(3-chloroquinolin-6-yl)ethyl)-1H-1,2,3-triazole-4-carboxamide]	1 to 10 nM
Cc1cc2c(N)nccc2c(C)c1CNC(=O)c1cc(CN)nn1Cc1ccccc1 [Example 202, N-((1-amino-5,7-dimethylisoquinolin-6-yl)methyl)-3-(aminomethyl)-1-benzyl-1H-pyrazole-5-carboxamide]	> 1000 nM
Cc1cc2c(N)nccc2c(C)c1CNC(=O)c1cc(CN)n(Cc2ccccc2)n1 [Example 203, N-((1-amino-5,7-dimethylisoquinolin-6-y1)methyl)-5-(aminomethyl)-1-benzyl-1H-pyrazole-3-carboxamide]	> 1000 nM
Cc1cc2c(N)nccc2c(C)c1CNC(=O)c1cnn(Cc2ccc(CC(=O)N(C)CC3CC3)cc2)c1 [Example 204, N-((1-amino-5,7-dimethylisoquinolin-6-yl)methyl)-1-(4-(2-((cyclopropylmethyl)(methyl)amino)-2-oxoethyl)benzyl)-1H-pyrazole-4-carboxamide]	1 to 10 nM
Cc1cc2c(N)nccc2c(C)c1CNC(=O)c1cnn(Cc2ccc(CC(=O)N3C[C@@H]4[C@H](C)[C@@H]4C3)cc2)c1 [Example 205, N-((1-amino-5,7-dimethylisoquinolin-6-yl)methyl)-1-(4-(2-((1R,5S,6r)-6-methyl-3-azabicyclo[3.1.0]hexan-3-y1)-2-oxoethyl)benzyl)-1H-pyrazole-4-carboxamide]	< 1 nM
Cc1cc2c(N)nccc2c(C)c1CNC(=O)c1cnn(Cc2ccc(CC(=O)N3C[C@@H]4[C@H](CF)[C@@H]4C3)cc2)c1 [Example 206, N-((1-amino-5,7-dimethylisoquinolin-6-yl)methyl)-1-(4-(2-((1R,5S,6s)-6-(fluoromethyl)-3-azabicyclo[3.1.0]hexan-3-y1)-2-oxoethyl)benzyl)-1H-pyrazole-4-carboxamide]	1 to 10 nM

More lines, now with the values ahead:

EC50	SMILES
< 1 nM	C/C=C\c1ccc2nc(Cn3ccc(C(=O)NCc4c(C)cc5c(N)nccc5c4C)n3)cn2c1 [Example 177, (Z)-N-((1-amino-5,7-dimethylisoquinolin-6-yl)methyl)-1-((6-(prop-1-en-1-yl)imidazo[1,2-a]pyridin-2-yl)methyl)-1H-pyrazole-3-carboxamide]
< 1 nM	Cc1cc2c(N)nccc2c(C)c1CNC(=O)c1cnn(Cc2cn3cc(C4CC4C)ccc3n2)c1 (stereo not drawn) [Example 178, N-((1-amino-5,7-dimethylisoquinolin-6-yl)methyl)-1-((6-(2-methylcyclopropyl)imidazo[1,2-a]pyridin-2-yl)methyl)-1H-pyrazole-4-carboxamide]
< 1 nM	Cc1cc2c(N)nccc2c(C)c1CNC(=O)c1cn(Cc2ccc(CC(=O)N3CC4CC4C3)cc2)nc1C(F)(F)F (stereo not drawn) [Example 182, 1-(4-(2-(3-azabicyclo[3.1.0]hexan-3-y1)-2-oxoethyl)benzyl)-N-((1-amino-5,7-dimethylisoquinolin-6-yl)methyl)-3-(trifluoromethyl)-1H-pyrazole-4-carboxamide]
< 1 nM	Cc1cc2c(N)nccc2c(C)c1CNC(=O)c1ccnc(Cc2ccc(Cn3cccn3)cc2)c1 [Example 183]
< 1 nM	Cc1cnn(Cc2ccc(Cn3cc(C(=O)NCc4c(C)cc5c(N)nccc5c4C)c(C(F)(F)F)n3)cc2)c1 [Example 184, N-((1-amino-5,7-dimethylisoquinolin-6-yl)methyl)-1-(4-((4-methyl-1H-pyrazol-1-yl)methyl)benzyl)-3-(trifluoromethyl)-1H-pyrazole-4-carboxamide]
< 1 nM	Cc1cc2c(N)nccc2c(C)c1CNC(=O)c1cn(Cc2ccc(Cn3cccn3)cc2)nc1C(F)(F)F [Example 185, 1-(4-((1H-pyrazol-1-yl)methyl)benzyl)-N-((1-amino-5,7-dimethylisoquinolin-6-y1)methyl)-3-(trifluoromethyl)-1H-pyrazole-4-carboxamide]
< 1 nM	COCc1nn(Cc2ccc(Cn3cccn3)cc2)cc1C(=O)NCc1c(C)cc2c(N)nccc2c1C [Example 187, 1-(4-((1H-pyrazol-1-yl)methyl)benzyl)-N-((1-amino-5,7-dimethylisoquinolin-6-yl)methyl)-3-(methoxymethyl)-1H-pyrazole-4-carboxamide]
< 1 nM	Cc1cc2c(N)nccc2c(C)c1CNC(=O)c1nnc(Cc2cn3cc(C4CC4)ccc3n2)o1 [Example 190, N-((1-amino-5,7-dimethylisoquinolin-6-yl)methyl)-5-((6-cyclopropylimidazo[1,2-a]pyridin-2-yl)methyl)-1,3,4-oxadiazole-2-carboxamide]
< 1 nM	Cc1cc2c(N)nccc2c(C)c1CNC(=O)c1ccnc(Cc2ccc3ncc(Cl)cc3c2)c1 [Example 197, N-((1-amino-5,7-dimethylisoquinolin-6-yl)methyl)-2-((3-chloroquinolin-6-yl)methyl)isonicotinamide]
< 1 nM	Cc1cc2c(N)nccc2c(C)c1CNC(=O)c1cn(Cc2cn3cc(C4CC4)ccc3n2)nc1C(F)F [Example 199, N-((1-amino-5,7-dimethylisoquinolin-6-y1)methyl)-1-((6-cyclopropylimidazo[1,2-a]pyridin-2-y1)methyl)-3-(difluoromethyl)-1H-pyrazole-4-carboxamide]
< 1 nM	Cc1cc2c(N)nccc2c(C)c1CNC(=O)c1cnn(Cc2cn3cc(C(F)(F)F)ccc3n2)c1 [Example 201, N-((1-amino-5,7-dimethylisoquinolin-6-yl)methyl)-1-((6-(trifluoromethyl)imidazo[1,2-a]pyridin-2-yl)methyl)-1H-pyrazole-4-carboxamide]
